Test results published in US11248254B2, “Method and system employing distinguishable polymerases for detecting ternary complexes and identifying cognate nucleotides” (Omniome, Inc., priority 2016, dated 2022).

Key:
Assay type in all cases: binding
[1] = target: T1, ternary complex of primed template nucleic acid, Bst DNA polymerase large fragment and cognate nucleotide (Geobacillus stearothermophilus, UniProt P52026); experiment: Biolayer interferometry: formation and retention of ternary complexes with different non-catalytic metal ions; conditions: 2 mM test metal ion; for binding signal when ternary complexes formed on primed template nucleic acid: 100 μM correct nucleotide, 200 nM Bst polymerase, 60 s binding (FIG. 2); for ternary complex decay / stability following washing: wash without polymerase, 10 μM correct dNTP, 100 μM incorrect dNTP, 300 s (FIG. 2); for ternary complex binding signal following a wash step, expressed as a percentage of the maximum signal: wash in absence of non-bound polymerase, baseline = signal at initial nucleotide contact
T1 construct: 200 nM unlabeled Bst DNA polymerase large fragment
T1 sequence (P52026 289-876 limits assumed): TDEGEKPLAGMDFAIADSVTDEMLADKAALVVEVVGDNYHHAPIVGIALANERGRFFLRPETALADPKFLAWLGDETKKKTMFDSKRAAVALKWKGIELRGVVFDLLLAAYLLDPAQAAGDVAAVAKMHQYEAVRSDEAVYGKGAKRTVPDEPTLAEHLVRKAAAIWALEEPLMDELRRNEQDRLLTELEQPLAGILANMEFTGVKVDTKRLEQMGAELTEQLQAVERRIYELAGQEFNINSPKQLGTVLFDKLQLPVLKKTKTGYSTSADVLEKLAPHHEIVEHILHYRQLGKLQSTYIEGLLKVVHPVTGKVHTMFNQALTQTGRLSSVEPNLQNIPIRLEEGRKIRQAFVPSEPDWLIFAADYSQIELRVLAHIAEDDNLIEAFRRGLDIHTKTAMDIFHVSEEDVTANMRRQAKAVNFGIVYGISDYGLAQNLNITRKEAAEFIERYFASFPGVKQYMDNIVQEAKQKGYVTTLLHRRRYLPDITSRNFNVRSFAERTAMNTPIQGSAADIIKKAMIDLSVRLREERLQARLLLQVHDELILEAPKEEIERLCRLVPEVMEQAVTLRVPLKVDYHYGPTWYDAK
Excerpt: A FORTEBIO® (Menlo Park, Calif.) Octet instrument employing biolayer interferometry to measure binding reactions at the surface of a fiber optic tip was used in a multiwell plate format to assess formation and stability of ternary complexes in the presence of different non-catalytic metal ions. Template nucleic acid strands biotinylated at their 5′-ends were used to immobilize the primed template nucleic acid onto fiber optic tips functionalized with streptavidin (SA) according to standard procedures. Tips were washed in a Tris-buffered solution containing 200 mM KCl, 160 mM potassium glutamate, and 0.01% Tween-20 before commencing the cycling protocol. Binding reactions conducted using 2 mM of the test metal ion (i.e., 2 mM of the metal salt) were carried out in serial fashion using examination buffers that contained Tris-HCl (pH 8.0), 220 mM KCl, 160 mM potassium glutamate, 0.01% Tween-20, 1 mM β-mercaptoethanol, 100 μg/ml BSA, the correct nucleotide at a concentration of 100 μM, and 200 nM unlabeled Bst DNA polymerase large fragment. Salts used in the testing procedure included: SrCl2, Na3VO4, EuCl3, and CuSO4. Examination buffers in this procedure were supplemented with DMSO and betaine to control DNA secondary structure. Binding steps were carried out for 60 seconds, and were followed by wash steps using a buffer that omitted polymerase, but included 10 μM of the correct dNTP, 100 μM of the incorrect dNTP, and 2 mM of the test metal ion. Retention of the ternary complex was measured over the course of 300 seconds. Surviving ternary complexes were stripped from the primed template by exposure to a solution containing 30 mM Tris-HCl (pH 8.0), 1 M NaCl, 4 mM EDTA, 4 mM DTPA, 0.2% SDS, 0.05% Tween-20, and 3% Tween-80 for a period of 30 seconds. This was followed by exposure to a regeneration solution made Tris-HCl (pH 8.0), 220 mM KCl, 160 mM potassium glutamate, 0.01% Tween-20, 1 mM β-mercaptoethanol, 100 μg/ml BSA for 20 seconds before commencing binding of polymerase and cognate nucleotide in the presence of the next test metal ion.

[2] = system: tested polymerases with primed template nucleic acid; experiment: Discrimination between correct and incorrect nucleotides at higher metal cation concentration; conditions: cation greater than about 5 mM; 150 mM to 300 mM monovalent metal cations
[3] = target: T2, Bsu DNA polymerase large fragment with primed template nucleic acid (Bacillus subtilis, UniProt O34996); experiment: Biolayer interferometry: discrimination between ternary (cognate dCTP) and binary (non-cognate dGTP) complex formation, KCl titration; conditions: 2 mM stabilizing cation, KCl 100-650 mM, potassium glutamate 80-640 mM (FIGS. 3, 4)
T2 construct: 350 U/ml Bsu DNA polymerase large fragment
T2 sequence (O34996 297-880 limits assumed): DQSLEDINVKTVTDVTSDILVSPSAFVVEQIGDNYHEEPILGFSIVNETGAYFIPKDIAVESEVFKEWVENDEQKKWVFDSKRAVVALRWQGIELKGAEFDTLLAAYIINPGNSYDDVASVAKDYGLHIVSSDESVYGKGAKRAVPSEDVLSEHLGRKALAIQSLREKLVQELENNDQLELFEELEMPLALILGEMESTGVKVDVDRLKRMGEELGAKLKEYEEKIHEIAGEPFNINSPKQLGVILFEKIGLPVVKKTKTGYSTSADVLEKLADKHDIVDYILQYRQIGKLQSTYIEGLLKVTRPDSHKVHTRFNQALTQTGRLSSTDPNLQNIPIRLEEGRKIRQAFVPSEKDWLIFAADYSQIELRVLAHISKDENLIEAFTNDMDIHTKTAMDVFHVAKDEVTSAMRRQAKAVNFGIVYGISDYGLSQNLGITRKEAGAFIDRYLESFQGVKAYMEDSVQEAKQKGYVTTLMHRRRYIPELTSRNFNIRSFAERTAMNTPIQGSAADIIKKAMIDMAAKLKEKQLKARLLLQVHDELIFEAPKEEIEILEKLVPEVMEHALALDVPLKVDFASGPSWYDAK
Excerpt: Materials and methods used in the procedure were as follows. The FORTEBIO® OCTET® instrument employing biolayer interferometry was used to measure binding reactions at the surface of a fiber optic tip in a multiwell plate format to investigate differential formation of binary and ternary complexes. Template strands biotinylated at their 5′-ends were used to immobilize the primed template nucleic acid onto fiber optic tips functionalized with streptavidin (SA) according to standard procedures. The next correct nucleotide for the biotinylated template DNA was dCTP (with dGTP being used as the model incorrect nucleotide). Tips were first equilibrated in a Tris-buffered solution containing 30 mM Tris-HCl (pH 8.0), and 0.1 mM EDTA before commencing the cycling protocol. […] When using a single contacting step to effect binding of polymerase and nucleotide to the primed template nucleic acid, the binding step was 60 seconds long, with binding interactions being monitored continuously. […] Results from interferometry monitoring were analyzed to identify formation of ternary complexes (i.e., identifying cognate nucleotide) or binary complexes (i.e., identifying non-cognate nucleotide).

## O=S(=O)([O-])[O-].[Cu+2] [Cu^2+, CuSO4]
[1]
  binding signal when ternary complexes formed on primed template nucleic acid: moderately high binding signals
  ternary complex decay / stability following washing: rapid decay

## [Cl][Eu]([Cl])[Cl] [Eu^3+, EuCl3]
[1]
  binding signal when ternary complexes formed on primed template nucleic acid: high binding signals
  ternary complex binding signal following a wash step, expressed as a percentage of the maximum signal: about 80%
  ternary complex decay / stability following washing: substantially more stable
[2]
  ability of polymerase to discriminate between correct and incorrect nucleotides: reduced abilities to discriminate between correct and incorrect nucleotides
[3]
  discrimination between ternary and binary complex formation: good discrimination between ternary and binary complex formation was achievable

## [Ni+2] [Ni^2+]
[2]
  ability of polymerase to discriminate between correct and incorrect nucleotides: This was not the case

## [Cl-].[Cl-].[Sr+2] [Sr^2+, SrCl2]
[1]
  binding signal when ternary complexes formed on primed template nucleic acid: high binding signals
  ternary complex binding signal following a wash step, expressed as a percentage of the maximum signal: about 40%
  ternary complex decay / stability following washing: slower than observed with V^5+ and Cu^2+ ions
[2]
  ability of polymerase to discriminate between correct and incorrect nucleotides: This was not the case

## [Tb+3] [Tb^3+]
[1]
  ternary complex binding signal following a wash step, expressed as a percentage of the maximum signal: substantially similar to trials conducted using Eu^3+ cations
  ternary complex decay / stability following washing: substantially similar to the use of Eu^3+ ions
[2]
  ability of polymerase to discriminate between correct and incorrect nucleotides: reduced abilities to discriminate between correct and incorrect nucleotides
[3]
  discrimination between ternary and binary complex formation: good discrimination between ternary and binary complex formation was achievable

## [Na+].[Na+].[Na+].[O]=[V]([O-])([O-])[O-] [V^5+, Na3VO4]
[1]
  binding signal when ternary complexes formed on primed template nucleic acid: moderately high binding signals
  ternary complex decay / stability following washing: rapid decay
